Measured values as given in patent US8759348B2, “Use of 4-(pyrrolidin-1-yl)quinoline compounds to kill clinically latent microorganisms” (Helperby Therapeutics Limited, priority 2007, dated 2014).

Tested on: persister Mycobacterium tuberculosis
Format: cell-based
Settings: 10 μg/mL of test compound

Molecule `Cc1cc(N2CCC(Cc3ccccc3)C2)c2cc(Oc3ccccc3)ccc2n1.Cl` (stereo not shown) [Example 8, 4-(3-Benzylpyrrolidin-1-yl)-2-methyl-6-phenoxyquinoline hydrochloride] has a log kill of 2.26.
